# From US7244724B2, “Pyrrolobenzodiazepines” (United States of America, Represented by the Secretary, …, priority 2003, dated 2007)
# Columns and labels:
# [1] = tested on: K562 human chronic myeloid leukaemia cells; assay: K562 assay (MTT cytotoxicity); type: cell-based; conditions: 96 h, 4 days incubation, n=2
# Protocol: An initial stock of compound (in 0.006% DMSO) was used to generate a 1:3 dilution series ranging from 600 nM to 30 pM be the sequential addition of 40 μL compound to 80 μL of solvent (0.006% DMSO in sterile H2O). 10 μL of each point of the dilution range was transferred to a 96 well assay plate (Nunc, Cat. No. 163320) to generate four replica points per compound concentration. K562 human chronic myeloid leukaemia cells were maintained in RPM1 1640 medium supplemented with 10% foetal calf serum and 2 mM glutamine at 37° C. in a humidified atmosphere containing 5% CO2. 190 μL of a 5×10^4 cell solution was added to each well of the assay plate using a Matrix Wellmate (Apogent Discoveries), resulting in a total of 9.5×10^3 cells/well. Working compound concentrations therefore ranged from 30 nM to 1.5 pM. Plates were then kept in the dark at 37° C. in a humidified atmosphere containing 5% CO2. The assay is based on the ability of viable cells to reduce a yellow soluble tetrazolium salt, 3-(4,5-dimethylthiazol-2-yl)-2,5-diphenyl-2H-tetrazolium bromide (MTT, Aldrich-Sigma), to an insoluble purple formazan precipitate. […] The optical density was then read at a wavelength of 540 nm on a Fusion plate reader (Perkin Elmer). […]
# [2] = Stability in d6-DMSO, d4-MeOH and D2O by 1H NMR (Study 4); type: physicochemical
# Protocol: Samples of SJG-720 (˜3 mg) were dissolved in d6-DMSO, D2O and d4-MeOH (Cambridge Isotopes) and transferred to separate NMR tubes (Wilmad, 5 mm). ^1H NMR spectra were obtained on a Bruker Avance 400 MHz NMR spectrophotometer (typically 64 scans). ^13C and DEPT (Distortionless Enhancement through Polarized Transfer) experiments were performed on these samples using the same instrument at the appropriate field strength (100 MHz).
# NMR spectra were recorded, as described above, after the following time intervals: • d6-DMSO, 1 hr, 8 days. • D2O, 3 hrs, 8 days. • d4-MeOH, 10 minutes, 3 days. Additional Studies
# NMR experiments were carried out on SJG-136 in its carbinolamine forms. […] However, strong signals corresponding to the kinetic and thermodynamic carbinolamine forms can be observed when the sample is analysed in d6-DMSO. These gradually disappear from the spectra over a period of about 24 hours when the imine form becomes the predominant species.
# Samples of the bisulphite adduct SJG-720 dissolved in d6-DMSO and D2O were stored at room temperature for over a period of 7 days and then analysed by ^1H NMR spectroscopy. […] In addition, a sample of SJG-720 stored at room temperature in d4-MeOH for over 3 days was also analysed by ^1H NMR.
SMILES,IC50 [1],Interconversion of carbinolamine forms to imine ([2]; CDCl3 or CD3CN),Period over which carbinolamine form signals disappear and the imine form becomes predominant ([2]; carbinolamine forms in d6-DMSO),"Stability in D2O (1H NMR spectrum change) ([2]; D2O, room temperature, over 7 days)","Stability in d4-MeOH (interconversion to carbinolamine methyl ether) ([2]; d4-MeOH, room temperature, over 3 days)","Stability in d6-DMSO (reversion to parent imine) ([2]; d6-DMSO, room temperature, over 7 days)"
C=C1C[C@H]2C=Nc3cc(OCCCOc4cc5c(cc4OC)C(=O)N4CC(=C)C[C@H]4C=N5)c(OC)cc3C(=O)N2C1 [SJG-136],< 10 nM,revert to the imine form immediately,about 24 hours,–,–,–
"C=C1C[C@H]2C(S(=O)(=O)[O-])Nc3cc(OCCCOc4cc5c(cc4OC)C(=O)N4CC(=C)C[C@H]4C(S(=O)(=O)[O-])N5)c(OC)cc3C(=O)N2C1.[Na+].[Na+] (stereo partly drawn) [SJG-720, 1,1′[[(Propane-1,3-diyl)dioxy]bis(11aS)-11-sulpho-7-methoxy-2-methylidene-1,2,3,10,11,11a-hexahydro-5H-pyrrolo[2,1-c][1,4-benzodiazepin-5-one]] sodium salt]",–,–,–,no appreciable hydrolysis had occurred,interconversion to the carbinolamine methyl ether from was not observed,complete absence of parent imine SJG-136 signals
